How the values were obtained:
(S)-ABA 8′-hydroxylase = conditions: according to Ueno, et al.; cited from earlier work
Arabidopsis thaliana = experiment: Seed Germination Assay; format: in vivo; conditions: for time for 100% germination: Arabidopsis seed, 0.3 ppm test compound, 0.5% DMSO
Protocol: To determine the germination inhibition potency of the analogs, a germination assay was performed with the model plant Arabidopsis thaliana. Arabidopsis seed was sterilized by shaking for five minutes in 200 proof ethanol, followed by shaking for five minutes in a 10% bleach solution. The seeds were then washed five times in sterile, distilled, de-ionized water and suspended in 0.1% phytoagar. The tubes containing the seeds were wrapped in aluminum foil and stratified at 4° C. for at least two days. The analogs were tested in four-well plates. Each plate contained one well each of a 0.5% DMSO control, (S)-ABA, (S)-3′-methyl-ABA (Example 2) and (±)-3′-methyl-ABA (Example 4), all at a desired concentration. In a typical experiment, 18 microliters of a 100 ppm stock solution of each compound in 10% DMSO was pipetted into the designated well. Additional DMSO (28.2 microliters) and water (3.8 microliters) was added to each well, followed by the addition of 5.95 mL of ½×Murashige and Skoog media containing 1.2% Bactoagar to all the wells. This gave a total volume of 6.0 mL per well, 0.3 ppm of the test compound and final DMSO concentration of 0.5%. When the media solidified, one hundred sterile stratified Arabidopsis seeds were distributed into each well. The plates were sealed with surgical tape and placed in a growth chamber running diurnal cycles of 12 hours of light at 24° C. and 12 hours of darkness at 19° C. The plates were scanned daily at high resolution (600 dpi) until all seeds were germinated. A seed was scored as germinated once the radicle emerged. The percentage of seeds germinated each day is reported in the graph of FIG. 1. The tests at each concentration were repeated at least twice and the results were reproducible.

rice seedling = conditions: according to Ueno, et al.; cited from earlier work

For `CC1=C(C)C(O)(/C=C/C(C)=C\C(=O)O)C(C)(C)CC1=O` (racemic) [Example 4, (±)-(2Z,4E)-5-(1-hydroxy-2,3,6,6-tetramethyl-4-oxocyclohex-2-en-1-yl)-3-methylpenta-2,4-dienoic acid], the “activity in (S)-ABA 8′-hydroxylase inhibition assay relative to (S)-ABA” value ((S)-ABA 8′-hydroxylase) is given as “weaker activity than (S)-ABA”, the “time for 100% germination” value (Arabidopsis thaliana) is given as 8 days and the “activity in rice seedling elongation assay relative to (S)-ABA” value (rice seedling) is given as “equal activity to (S)-ABA”.

In the case of `CC1=CC(=O)CC(C)(C)[C@@]1(O)/C=C/C(C)=C/C(=O)O` [(S)-ABA, (S)-abscisic acid], the “time for 100% germination” value (Arabidopsis thaliana) is reported as 6 days.

With `CC1=C(C)[C@](O)(/C=C/C(C)=C\C(=O)O)C(C)(C)CC1=O` [Example 2, (2Z,4E)-((S)-1-hydroxy-2,3,6,6-tetramethyl-4-oxocyclohex-2-en-1-yl)-3-methylpenta-2,4-dienoic acid] the “potency at inhibiting Arabidopsis seed germination relative to (S)-ABA or (±)-3′-methyl-ABA” value (Arabidopsis thaliana; 0.3 ppm, FIG. 1) was “more potent” and the “time for 100% germination” value (Arabidopsis thaliana) was 15 days.

Reference: patent publication US9326508B2, “(S)-3′-methyl-abscisic acid and esters thereof” (Valent BioSciences Corporation, priority 2014, dated 2016)
